From the supplement of paper PMC10331698
± gives the standard deviation of the averaged measurements.

Key:
Assay in all cases: level (log10 ratio to DMSO vehicle control); higher = higher biomarker level / cell amount than vehicle control
Settings in all cases: in DMSO
[1] = compound: CCN(CCO)S(=O)(=O)C(F)(F)C(F)(F)C(F)(F)C(F)(F)C(F)(F)C(F)(F)C(F)(F)C(F)(F)F [N-Ethyl-N-(2-hydroxyethyl)perfluorooctanesulfonamide]
Method: (§1)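 BioMAP Diversity Plus panel of 12 human primary cell co-culture systems (3C, 4H, LPS, SAg, BT, BF4T, BE3C, CASM3C, HDF3CGF, KF3CT, MyoF, Mphg). Compounds were added 1 h before stimulation and left for 24 h (MyoF 48 h; BT 72 h for soluble read-outs or 6 d for IgG). Biomarkers were read by ELISA, cytotoxicity by SRB, PBMC viability and proliferation by Alamar Blue. Each well value was divided by the mean of 8 DMSO control wells on the same plate and log10 transformed; duplicate blinded samples were tested at 4 concentrations.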

[2] = compound: FC(F)(F)C(F)(C(F)(F)F)C(F)(F)C(F)(F)CC1CO1 [3-(Perfluoro-3-methylbutyl)-1,2-propenoxide]
Method: as §1

[3] = compound: FC(F)(F)C(F)(F)C(F)(F)C(F)(F)C(F)(F)C(F)(F)C(F)(F)C(F)(F)CCS [2-(Perfluorooctyl)ethanthiol]
Method: as §1

[4] = compound: FC(F)(F)C(F)(F)C(F)(F)C(F)(F)C(F)(F)CCI [1-Iodo-1H,1H,2H,2H-perfluoroheptane]
Method: as §1

Heptafluorobutyramide = compound: NC(=O)C(F)(F)C(F)(F)C(F)(F)F [Heptafluorobutyramide]
Method: as §1

[5] = compound: NCC(F)(F)C(F)(F)C(F)(F)C(F)(F)C(F)(F)C(F)(F)C(F)(F)F [1H,1H-Perfluorooctylamine]
Method: as §1

Perfluoroheptanoic acid = compound: O=C(O)C(F)(F)C(F)(F)C(F)(F)C(F)(F)C(F)(F)C(F)(F)F [Perfluoroheptanoic acid]
Method: as §1

| Test System | level (log10) ([1]; 6700 nM) | level (log10) ([1]; 20000 nM) | level (log10) ([2]; 6700 nM) | level (log10) ([2]; 20000 nM) | level (log10) ([3]; 6700 nM) | level (log10) ([3]; 20000 nM) | level (log10) ([4]; 6700 nM) | level (log10) ([4]; 20000 nM) | level (log10) ([4]; 60000 nM) | level (log10) (Heptafluorobutyramide; 6700 nM) | level (log10) (Heptafluorobutyramide; 20000 nM) | level (log10) (Heptafluorobutyramide; 60000 nM) | level (log10) ([5]; 6700 nM) | level (log10) ([5]; 20000 nM) | level (log10) ([5]; 60000 nM) | level (log10) (Perfluoroheptanoic acid; 6700 nM) | level (log10) (Perfluoroheptanoic acid; 20000 nM) | level (log10) (Perfluoroheptanoic acid; 60000 nM) |
| --- | --- | --- | --- | --- | --- | --- | --- | --- | --- | --- | --- | --- | --- | --- | --- | --- | --- | --- |
| KF3CT:PAI-I | -0.0995 ± 0.011 | -0.193 ± 0.014 | 0 ± 0.035 | -0.011 ± 0.037 | -0.04 | -0.0425 ± 0.023 | -0.007 ± 0.02 | -0.014 ± 0.0071 | -0.0245 ± 0.028 | -0.0145 ± 0.0035 | -0.011 ± 0.0028 | 0.0105 ± 0.012 | -0.0025 ± 0.005 | -0.001 ± 0.0014 | 0.003 ± 0.014 | -0.043 ± 0.016 | -0.0355 ± 0.012 | -0.013 ± 0.068 |
| lMphg:SRB-Mphg | 0.0095 ± 0.00071 | 0.001 ± 0.021 | 0.0005 ± 0.0092 | 0.0075 ± 0.0021 | 0.007 ± 0.0057 | 0.0105 ± 0.018 | 0.004 ± 0.0028 | -0.0015 ± 0.0035 | 0.009 ± 0.013 | -0.038 ± 0.0071 | -0.0175 ± 0.0021 | 0.0155 ± 0.036 | -0.0055 ± 0.005 | -0.007 ± 0.0042 | 0.0055 ± 0.032 | -0.003 ± 0.014 | 0.005 ± 0.0071 | 0.004 ± 0.0042 |
| CASM3C:SRB | -0.0265 ± 0.0078 | -0.097 ± 0.014 | 0.004 ± 0.0042 | -0.001 ± 0.014 | 0.002 ± 0.0085 | 0.0095 ± 0.0064 | 0.0035 ± 0.0021 | -0.0075 ± 0.0078 | -0.024 ± 0.0028 | -0.0135 ± 0.0078 | 0 ± 0.018 | -0.0065 ± 0.0078 | -0.002 ± 0.0028 | -0.001 ± 0.013 | 0.0035 ± 0.018 | -0.008 ± 0.0099 | -0.011 ± 0.0014 | -0.0065 ± 0.012 |
| CASM3C:CD106/VCAM-1 | -0.085 ± 0.0057 | -0.219 ± 0.021 | -0.022 ± 0.014 | -0.0145 ± 0.019 | -0.0135 ± 0.005 | -0.014 ± 0.0099 | 0.0215 ± 0.005 | -0.0015 ± 0.0078 | -0.063 ± 0.0014 | -0.0215 ± 0.053 | -0.0085 ± 0.033 | -0.0265 ± 0.059 | -0.018 ± 0.058 | -0.007 ± 0.035 | -0.0105 ± 0.015 | -0.0085 ± 0.0035 | -0.0135 ± 0.021 | 0.012 ± 0.054 |
| HDF3CGF:TIMP-2 | 0.136 ± 0.0057 | 0.108 ± 0.0071 | -0.043 ± 0.081 | -0.0475 ± 0.1 | -0.0305 ± 0.073 | -0.0265 ± 0.069 | 0.0155 ± 0.023 | 0.004 ± 0.033 | -0.019 ± 0.035 | -0.0195 ± 0.025 | -0.0065 ± 0.033 | -0.009 ± 0.071 | -0.03 ± 0.059 | -0.013 ± 0.052 | -0.0245 ± 0.016 | -0.011 ± 0.018 | -0.012 ± 0.017 | 0.014 ± 0.0085 |
| HDF3CGF:CXCL9/MIG | -0.0065 ± 0.015 | -0.159 ± 0.023 | 0.0165 ± 0.012 | 0.0155 ± 0.016 | -0.0085 ± 0.0078 | -0.0125 ± 0.0092 | -0.0255 ± 0.044 | -0.0445 ± 0.0092 | -0.149 ± 0.11 | 0.0055 ± 0.026 | 0.0035 ± 0.019 | -0.0225 ± 0.025 | -0.006 ± 0.018 | -0.0205 ± 0.011 | -0.0115 ± 0.005 | -0.009 ± 0.0071 | -0.002 ± 0.021 | 0.0165 ± 0.0064 |
| HDF3CGF:MMP-1 | 0.043 ± 0.013 | 0.0065 ± 0.026 | 0.0095 ± 0.012 | -0.008 ± 0.024 | -0.0095 ± 0.022 | -0.0235 ± 0.044 | 0.0565 ± 0.013 | 0.078 ± 0.0085 | 0.089 ± 0.037 | 0.004 ± 0.011 | -0.01 | 0.001 ± 0.0057 | -0.012 ± 0.0014 | 0.0015 ± 0.0035 | 0.013 ± 0.0014 | -0.0105 ± 0.012 | 0.0025 ± 0.00071 | 0.0065 ± 0.005 |
| MyoF:bFGF | -0.01 ± 0.016 | -0.025 ± 0.0042 | 0.006 ± 0.0099 | -0.001 ± 0.0042 | -0.0075 ± 0.019 | -0.017 ± 0.0014 | 0.0005 ± 0.0078 | 0.005 ± 0.011 | 0.046 ± 0.013 | -0.0155 ± 0.021 | 0.004 ± 0.016 | -0.001 ± 0.013 | 0.0095 ± 0.028 | 0 ± 0.014 | 0.019 ± 0.0099 | -0.029 ± 0.0085 | -0.0255 ± 0.013 | -0.0075 ± 0.0021 |
| 3C:CCL2/MCP-1 | -0.032 ± 0.016 | -0.145 ± 0.032 | -0.0115 ± 0.0064 | -0.0125 ± 0.025 | 0.0045 ± 0.035 | 0.0135 ± 0.0078 | -0.0135 ± 0.0021 | -0.009 ± 0.0099 | 0.0045 ± 0.025 | -0.011 ± 0.0057 | -0.0125 ± 0.0064 | 0.0065 ± 0.03 | -0.003 ± 0.0099 | 0.0095 ± 0.021 | 0.0275 ± 0.028 | 0.0015 ± 0.015 | -0.009 ± 0.013 | 0.032 ± 0.045 |
| HDF3CGF:CXCL11/I-TAC | -0.0535 ± 0.046 | -0.172 ± 0.041 | -0.0005 ± 0.079 | -0.0275 ± 0.087 | -0.0135 ± 0.028 | -0.0355 ± 0.0092 | -0.0155 ± 0.00071 | -0.027 ± 0.0042 | -0.143 ± 0.042 | 0.0015 ± 0.00071 | -0.0015 ± 0.0092 | -0.0305 ± 0.015 | -0.0135 ± 0.035 | -0.021 ± 0.033 | -0.046 ± 0.078 | -0.0165 ± 0.013 | 0.003 ± 0.011 | 0.01 ± 0.016 |
| lMphg:sIL-10 | 0 ± 0.024 | -0.0505 ± 0.028 | -0.005 ± 0.028 | -0.04 ± 0.013 | -0.122 ± 0.065 | 0.0325 ± 0.046 | 0.003 ± 0.033 | 0.01 ± 0.017 | -0.114 ± 0.062 | 0.002 ± 0.05 | -0.0445 ± 0.071 | -0.011 ± 0.058 | -0.067 ± 0.14 | -0.002 ± 0.082 | -0.022 ± 0.04 | -0.017 ± 0.018 | 0.007 ± 0.027 | -0.0945 ± 0.032 |
| 3C:CD62E/E-Selectin | 0.0685 ± 0.012 | 0.068 ± 0.0057 | -0.0215 ± 0.0078 | -0.0115 ± 0.013 | -0.0065 ± 0.03 | -0.0235 ± 0.036 | -0.005 ± 0.0071 | 0.004 ± 0.011 | 0.008 ± 0.018 | -0.0085 ± 0.03 | -0.017 ± 0.038 | -0.0385 ± 0.0064 | -0.0045 ± 0.047 | 0.022 ± 0.02 | 0.0335 ± 0.011 | 0.007 ± 0.0042 | 0.0125 ± 0.0078 | 0.0185 ± 0.00071 |
| HDF3CGF:PAI-I | -0.0695 ± 0.061 | -0.211 ± 0.08 | -0.003 ± 0.028 | 0.0125 ± 0.015 | -0.077 ± 0.054 | -0.0885 ± 0.066 | 0.078 ± 0.02 | 0.0135 ± 0.0078 | 0.0355 ± 0.096 | -0.0105 ± 0.018 | -0.0275 ± 0.028 | -0.0125 ± 0.03 | 0.008 ± 0.033 | -0.018 ± 0.0042 | -0.003 ± 0.023 | -0.017 ± 0.0028 | -0.0215 ± 0.0035 | -0.008 ± 0.041 |
| lMphg:M-CSF | -0.001 ± 0.0057 | 0.0105 ± 0.0035 | -0.0215 ± 0.021 | -0.005 ± 0.02 | -0.0075 ± 0.023 | 0.012 ± 0.0028 | -0.043 ± 0.03 | -0.0355 ± 0.012 | -0.007 ± 0.013 | -0.014 ± 0.018 | -0.034 ± 0.025 | -0.0135 ± 0.00071 | -0.024 ± 0.033 | -0.0185 ± 0.005 | -0.0245 ± 0.0021 | -0.006 ± 0.0014 | -0.001 ± 0.016 | 0.005 ± 0.0071 |
